13 molecules from US20220062281A1, “INHIBITORS TO TARGET HIV-1 NEF-CD80/CD86 IN[…] THERAPEUTIC INTERVENTION” (priority 2018, published 2022) can be followed below.

Assay [1] concerns the target Nef interaction with CD80 (Human immunodeficiency virus type 1 group M subtype B, UniProt P04601). The assay can be described thus: ELISA primary screen: Nef binding to CD80 cytosolic peptide. Also noted: species or system HIV-1. Particulars: CD80 pIC50 value, inhibition of Nef-CD80 binding. How it is done:
(§1) Standard ELISA assay was used to validate the compounds as a primary screen. The basic steps of the assay are outlined in FIG. 1. The cytosolic peptides CD80, CD86 and CD74 are coated on a microplate, while CD80 and CD86 has higher binding capacity with the Nef protein, CD74 is non-specific peptide and is a peptide negative control for Nef binding. The coated plates are incubated overnight at 4° C. The plates were washed 5 times with PBS (0.02% Tween-20) before every step. After washing, the wells were blocked with 5% blotto and incubated at RT with shaking (650 rpm). The plates were washed 5 times with PBS (0.02%-tween20) after every step. Primary antibody […] anti-Nef raised in rabbit dissolved in 2.5% blotto (1:1000) were added and incubated on shaker for 1 hour at RT. Plate was washed and 100 μL anti rabbit raised in donkey dissolved in 2.5% blotto (1:11000) was added and incubated at RT for 45 min. Plate was washed with PBS and TMB substrate solution was added and incubated in dark for 5-10 min. The reaction was stopped with 1N H2SO4 and the absorbance was measured at 450 nm. Positive control (Nef) and Negative control (No peptide with Nef) were analysed for highest binding of Nef with peptide. The absorbance of the plates was measured at 450 nm.
(§2) A throughput screen was performed to pull out the actives. Standard quality control metrics like Z′ were used to qualify plates and Z′ scores were used to identify actives. The IC50 value of the compounds were further determined to evaluate the efficacy of the test compounds.
(§3) The IC50 values of the compounds have been illustrated in Table 1. […] Actives predominantly belong to compounds from Formula I, II and III with IC50s in nano or subnanomolar ranges were selected. Selected compounds were then screened in the cell-based assays systems.
(In general: In an ELISA, binding on a coated surface is turned into a signal by an enzyme label.)

For assay [2], the target named is Nef interaction with CD86 (Human immunodeficiency virus type 1 group M subtype B, UniProt P04601). Briefly: ELISA primary screen: Nef binding to CD86 cytosolic peptide. Also noted: species or system HIV-1. How it is done:
as §1, §2, §3

Assay [3] concerns Nef mediated internalization of surface CD80/86 in B/monocyte cells. The assay can be described thus: Cell-based phenotypic screen for downregulation of surface CD80/86 (flow cytometry). Conditions: 100 μM, pre-exposed 2 hrs, then infected with non-replicative retrovirus containing NEF; flow cytometry after 48-72 hrs. From the text: CD80 and CD86 are two major co-stimulatory cell surface proteins that are present on antigen presenting cells (APCs) and provide a co-stimulatory signal necessary for activation and survival of the naïve T cells. Both these proteins get down regulated during HIV infection via a Nef mediated pathway. It has been speculated that Nef ability to reduce CD80 and CD86 surface expression in infected cells can prevent the activation of naive T cells, necessary for an efficient recognition and elimination of the target cells. FIG. 2 illustrates that in the presence of the compounds of Formula I, Formula II or Formula III, the binding of Nef with CD80 and CD86 is inhibited thus increasing their expression. The increased expression would activate naïve T cells and aid in eliminating the infection.
Briefly monocyte/B cell lines were either delivered with Nef protein or exposed to replication deficient retrovirus and the levels of surface CD80/86 was evaluated by flow cytometry with/without compound treatment. The compounds were qualified based on the ability to reverse the down regulation of CD80/86 caused by the Nef protein. Similar quality checks were used in the secondary screen as in primary screen. Briefly, B/monocyte cells were preexposed to 100 μM of the 4 compounds for 2 hrs and then infected with non-replicative retrovirus containing NEF. The internalization of surface receptors were measured by flow cytometry after optimal infection (48-72 hrs).
(In general: In flow cytometry, cells or beads pass a laser one at a time.)

Assay [4] relates to Nef mediated T cell inactivation. Briefly: T cell activation assay (IL-2 release, B-cell line co-cultured with T cell line). Format: cell-based. Particulars: 100 μM, B-cell line pre-exposed 1 hr, Nef via protein delivery agent, IL-2 by ELISA after 3 hrs. From the text:
The appropriate cell system was designed to mimic the biology of the said interactions. FIG. 4(A) represents the principle behind the activation of naïve T cells by the antigen presenting cells (APC), including dendritic cells, B cells, monocytes, macrophages. The activation is based on CD80/86 co-stimulation along with CD3 activation by major histocompatibility complex (MHC) as evidenced by an increase in IL-2 release from the activated T cells.
Representative compounds from the Formula I, II and III were tested in the functional T cell assay and the results are as presented in FIG. 5. B-cell line was pre-exposed to 100 μM of the 4 compounds for 1 hr. The cells were washed and then Nef was introduced via protein delivery agent. The cells were washed again and co-cultured with T cell line. The IL-2 release (as an indicator of activation) was measured by ELISA after 3 hrs. Addition of Nef reduced the T cell activation by more than 50%.

For orientation: IC50 means the concentration needed to halve the response being measured. The molecule `Cc1cc(C)n(-c2ncc(-c3ccc([N+](=O)[O-])cc3)cn2)n1` [Compound I1a, 2-(3,5-Dimethyl-1H-pyrazol-1-yl)-5-(4-nitrophenyl)pyrimidine] gave a 50% inhibitory concentration (IC50) in assay [1] of 0.00234 nM. In the case of `O=C(Nc1ccc(Cl)c(Cl)c1)Nc1cc([N+](=O)[O-])ccc1OC(=O)Nc1ccc(Cl)c(Cl)c1` [II4, 2-[3-(3,4-dichlorophenyl)ureido]-4-nitrophenyl (3,4-dichlorophenyl)carbamate], the IC50 in assay [2] is 0.275 nM; in assay [1] it was 0.0275 nM. In assay [1], `CCOC(=O)c1ccc(NC(=O)C(C)(C)Oc2ccc(Cl)cc2)cc1` [III2c, Ethyl 4-[2-(4-chlorophenoxy)-2-methylpropanamido]benzoate] gave an IC50 of 1.51 nM.

For `CN(C)c1ncc(-c2ccccc2)cn1` [Compound I3a, N,N-Dimethyl-5-phenylpyrimidin-2-amine], the IC50 in assay [1] worked out at 0.011 nM. This IC50 lies about 140-fold lower than the previous one. For the molecule `Cc1ccc(S(=O)(=O)NNC(=O)c2ccccc2OC(=O)Nc2ccccc2)cc1` [II7, 2-[(2-Tosylhydrazine-1-carbonyl)phenyl]phenylcarbamate], the IC50 in assay [1] was 0.0871 nM. The same measure, in the same setting: the result for `CC(Oc1ccccc1)C(=O)Nc1ccc(C(=O)O)cc1` (stereo not shown) [III2b, 4-(2-Phenoxypropanamido)benzoic acid] reads 1.12 nM. Turning to `O=C(Nc1ccccc1F)Oc1ccc2ccccc2c1` [II3, Naphthalen-2-yl (2-fluorophenyl)carbamate], the “reversal of Nef mediated internalization of CD80/86” value (shortened to “reversal … of CD80/86”) in assay [3] is given as “reversal of Nef mediated internalization of CD80/86”. Besides, the half-maximal inhibitory concentration (IC50) in assay [2] was 0.0126 nM. In assay [4], the “reversal of Nef mediated inactivation of T cells (IL-2 release)” value (shortened to “reversal … (IL-2 release)”) is recorded as “reversed the Nef mediated inactivation”.

In the case of `Cc1cc(C)cc(OCC(=O)Nc2ccc(C(=O)O)c(O)c2)c1` [III2a, 4-[2-(3,5-dimethylphenoxy)acetamido]-2-hydroxybenzoic acid], the “reversal … of CD80/86” value in assay [3] is listed as “reversal of Nef mediated internalization of CD80/86”. Moreover, the “reversal … (IL-2 release)” value in assay [4] is given as “reversed the Nef mediated inactivation”. This molecule also showed an IC50 in assay [1] of 0.00447 nM. In assay [1], `O=C(Oc1ccccc1)n1c(=S)oc2ccccc21` [II1, Phenyl 2-thioxobenzo[d]oxazole-3(2H)-carboxylate] gave a half-inhibitory concentration (IC50) of 0.0912 nM.

`O=C(Oc1cccc(-c2nnco2)c1)N(c1ccccc1)c1ccccc1` [II5, 3-[(1,3,4-oxadiazol-2-yl)phenyl]diphenylcarbamate]: the IC50 in assay [1] is 0.00275 nM. This IC50 lies about 33-fold lower than the previous one. As for `CCCOC(=O)c1ccc(NC(=O)COc2cccc(C)c2)cc1` [III1e, Propyl 4-[2-(m-tolyloxy)acetamido]benzoate], the IC50 in assay [1] is 2.34 nM. Consider `Cc1ccc(OC(=O)Nc2ccc(Cc3ccc(NC(=O)Oc4ccc(C)cc4)cc3)cc2)cc1` [II2d, Di-p-tolyl [methylenebis(4,1-phenylene)]dicarbamate], for which the figures for the IC50 in assay [2] and in assay [1] were 513 nM and 10.5 nM, respectively. Consider `FC(F)(F)c1ccc(-c2cnc(N3CCOCC3)nc2)cc1` [Compound I3b, 4-[5-(4-(Trifluoromethyl)phenyl)pyrimidin-2-yl]morpholine], for which, in assay [3], the “reversal … of CD80/86” value was “reversal of Nef mediated internalization of CD80/86”. Moreover, the half-inhibitory concentration (IC50) is 1.62 nM in assay [2] and 0.129 nM in assay [1]. In addition, the “reversal … (IL-2 release)” value in assay [4] is recorded as “reversed the Nef mediated inactivation”.
